Experimental data published in patent US20210386752A1, “Uses of Electron Transport Chain Complex I or Complex II Inhibitors in Treating Cancer, Combination Therapies, and Diagnostic Methods Related Thereto” (Emory University, priority 2020, published 2021).

What was measured:
[1] = system: venetoclax-resistant MM lines; assay: Venetoclax sensitization of resistant MM lines by ETC inhibitor cotreatment, viability by AnnexinV/DAPI staining; assay type: cell-based
Experimental: Cell viability assessed by AnnexinV/DAPI staining.
(§1) Given the unique role of Complex II in directly connecting the TCA cycle to the ETC, the impact of selectively inhibiting either the SDH or SQR activities of Complex II on venetoclax sensitivity was tested. The venetoclax sensitization effects of TTFA (SQR inhibitor) or 3NPA (SDH inhibitor) were tested on eight venetoclax-resistant MM lines (FIG. 3A-3H). 3NPA is a structural analog of succinate, which binds irreversibly with SDH inhibiting FAD reduction and fumarate production while TTFA is a direct Qp site inhibitor. […] The efficacy of the TTFA-venetoclax cotreatment strategy was also tested in a colony-forming unit assay. MM lines (L363 and KMS11) were cultured in an agar matrix with single agents or the combination.
To further inquire whether Complex I inhibition could also sensitize MM cells to venetoclax, a Complex I inhibitor was tested ([…]).

[2] = system: CD38+ CD45− gated MM cells from myeloma patient bone marrow aspirates; assay: Ex vivo venetoclax sensitivity of myeloma patient samples, Annexin V staining; assay type: cell-based, human
Experimental: CD38-PE and CD45-APC-Cy7 were used to gate myeloma cells. n=50 biological independent samples.
Bone marrow aspirate samples from 50 MM patients were treated with three doses of venetoclax (0.01, 0.1 and 0.5 μM) or TTFA (100 μM), or the combination for 24 h and cell death was assessed by AnnexinV staining. […] A venetoclax ICso <0.1 μM is characterized as a sensitive sample.
Bone marrow aspirates or peripheral blood samples from consenting myeloma patients were diluted to 25 mL with PBS and over laid on lymphocyte separation media. Following centrifugation, the collected buffy coat was washed with PBS and resuspended in culture medium. Cells subject to various treatments were stained with anti-CD38-phyocerythrin and anti-CD45-allophycocyanin-Cy7 to identify MM cells. CD138+ cells were purified using MACS CD138+ human microbeads. IC50S of venetoclax alone or in combination with TTFA/IACS-010759 in myeloma samples were calculated using nonlinear regression (curve-fit) analysis under agonist vs. normalized response with variable slope.

[3] = target: T1, succinate dehydrogenase (SDH) (Homo sapiens, UniProt P31040); assay: SDH activity assay in permeabilized cells; assay type: biochemical; details: TTFA-treated KMS11 cells
T1 construct: endogenous in cells; host or cells: KMS11 multiple myeloma cells, permeabilized
T1 sequence (P31040 43-664): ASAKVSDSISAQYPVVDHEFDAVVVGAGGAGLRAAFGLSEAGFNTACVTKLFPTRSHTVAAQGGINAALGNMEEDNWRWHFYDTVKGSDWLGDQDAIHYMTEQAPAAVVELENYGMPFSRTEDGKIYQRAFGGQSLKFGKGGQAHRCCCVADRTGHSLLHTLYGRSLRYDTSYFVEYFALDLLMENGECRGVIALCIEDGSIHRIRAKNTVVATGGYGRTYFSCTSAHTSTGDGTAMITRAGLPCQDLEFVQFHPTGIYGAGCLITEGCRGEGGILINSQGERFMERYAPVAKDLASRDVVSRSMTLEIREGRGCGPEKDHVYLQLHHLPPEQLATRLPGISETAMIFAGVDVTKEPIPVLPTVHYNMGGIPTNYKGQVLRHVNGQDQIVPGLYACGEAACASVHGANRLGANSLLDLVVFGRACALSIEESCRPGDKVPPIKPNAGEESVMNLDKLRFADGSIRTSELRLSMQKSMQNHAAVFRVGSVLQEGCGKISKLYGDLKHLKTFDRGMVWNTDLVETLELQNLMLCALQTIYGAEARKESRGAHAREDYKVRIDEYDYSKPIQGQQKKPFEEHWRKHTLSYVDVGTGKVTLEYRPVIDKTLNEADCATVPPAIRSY
T1 sequence (P21912 29-280 partner): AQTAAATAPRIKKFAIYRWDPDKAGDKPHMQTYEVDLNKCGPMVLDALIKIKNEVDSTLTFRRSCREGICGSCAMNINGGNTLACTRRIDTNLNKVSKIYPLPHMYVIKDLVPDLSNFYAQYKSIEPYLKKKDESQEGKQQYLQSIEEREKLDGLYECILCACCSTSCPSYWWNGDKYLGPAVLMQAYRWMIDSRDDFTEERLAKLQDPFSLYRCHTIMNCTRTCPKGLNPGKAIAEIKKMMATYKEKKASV
T1 sequence (Q99643 30-169 partner): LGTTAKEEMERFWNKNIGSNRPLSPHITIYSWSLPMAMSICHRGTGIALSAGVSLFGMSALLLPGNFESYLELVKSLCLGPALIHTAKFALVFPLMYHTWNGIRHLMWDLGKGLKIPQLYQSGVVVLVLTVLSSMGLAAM
T1 sequence (O14521 57-159 partner): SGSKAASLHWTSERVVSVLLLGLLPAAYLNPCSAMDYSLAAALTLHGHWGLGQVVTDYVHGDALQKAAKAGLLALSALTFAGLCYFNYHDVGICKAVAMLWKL
Source text: Given reduced oxygen consumption rates (OCR) in sensitive cells, the activities of mitochondrial Complex I and II were examined. Mitochondrial Complex I and II receive electrons from the electron donors NADH or FADH2 respectively, that are transferred to the terminal electron acceptor (O2) via a series of redox reactions. Complex I or NADH:Coenzyme Q:oxidoreductase is the largest multimeric respiratory complex of ETC comprised of over 40 subunits with its catalytic subunit containing the NADH binding site. Electrons from NADH are transferred to FMN and then to FeS clusters and finally to ubiquinone where ubiquinone is reduced to ubiquinol. Complex II is the only enzyme that has a direct role both in the TCA cycle and ETC. […] Complex I activity was measured using an assay that relies on immunocapture of Complex I from freshly prepared cellular protein extracts. The NADH dehydrogenase activity of immunocaptured Complex I was determined by the oxidation of NADH and simultaneous reduction of the provided dye resulting in increase in absorbance. SDH and SQR activities were measured in live permeabilized cells, containing intact mitochondria pretreated with inhibitors of Complex I (rotenone), Complex III (antimycin) and Complex IV (sodium azide), allowing for selective measurement of SQR or SDH activity. […]

[4] = system: MM lines (L363 and KMS11); assay: Colony-forming unit assay in agar matrix, TTFA-venetoclax cotreatment; assay type: cell-based; details: L363 and KMS11, venetoclax 0.1 μM
Experimental: as §1

[5] = system: non-MM cells contained within the aspirate
Experimental: Bone marrow aspirate samples from 50 MM patients were treated with three doses of venetoclax (0.01, 0.1 and 0.5 μM) or TTFA (100 μM), or the combination for 24 h and cell death was assessed by AnnexinV staining.
The efficacy of IACS-010759 in sensitizing was tested in […] patient samples to venetoclax.

citrate synthase = target: T2, citrate synthase (Homo sapiens, UniProt O75390); assay: Citrate synthase (CS) activity assay; assay type: biochemical; details: TTFA-treated KMS11 cells
T2 construct: Citrate synthase activity assay was measured in 0.3×10^6 cells harvested per sample and washed with PBS; endogenous in cells; host or cells: KMS11 multiple myeloma cells
T2 sequence (O75390 28-466): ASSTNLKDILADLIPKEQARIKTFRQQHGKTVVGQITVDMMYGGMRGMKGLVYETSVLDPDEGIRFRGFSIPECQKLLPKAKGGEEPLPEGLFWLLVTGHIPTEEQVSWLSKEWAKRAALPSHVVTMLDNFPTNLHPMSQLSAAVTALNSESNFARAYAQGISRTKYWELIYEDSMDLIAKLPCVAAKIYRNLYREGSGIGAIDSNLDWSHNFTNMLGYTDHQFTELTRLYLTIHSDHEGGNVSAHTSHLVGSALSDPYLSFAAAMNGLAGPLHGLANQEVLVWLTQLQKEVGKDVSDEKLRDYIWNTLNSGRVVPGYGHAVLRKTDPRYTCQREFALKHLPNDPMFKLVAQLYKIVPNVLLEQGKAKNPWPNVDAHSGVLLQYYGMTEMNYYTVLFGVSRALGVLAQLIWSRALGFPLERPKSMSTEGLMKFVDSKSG
Experimental: Citrate synthase activity assay was measured in 0.3×10^6 cells harvested per sample and washed with PBS. Cells were resuspended in 10 mM Tris (pH 8.5) and 0.1% Triton X-100 assay buffer, containing 300 μM acetyl CoA and 100 μM 5,5′-dithiobis(2-nitrobenzoic acid) (DTNB=molar extinction coefficient 13.6 mM^−1 cm^−1). Reaction was started by the addition of 0.5 mM oxaloacetic acid and change in absorbance recorded at 412 nm wavelength every min for 10 min. SQR, SDH and CS activity measurements were performed with 100 μL sample containing 0.3×10^6 permeabilized cells.

In the case of `O=C(CC(=O)C(F)(F)F)c1cccs1` [TTFA, 4,4,4-trifluoro-1-(2-thienyl)-1,3-butanedione], the sensitization to venetoclax ([1]; KMS21BM, TTFA at 100 μM) is reported as “does not sensitize these cells to venetoclax”, the sensitization to venetoclax ([1]; L363, TTFA 100 μM, 24 h) is reported as “sensitizes myeloma cell line L363 to venetoclax more effectively than inhibition of SDHA with 3-NPA” and the “sensitivity to venetoclax on cotreatment” value ([1]; eight venetoclax-resistant MM lines, 24 h) is reported as “increased sensitivity to venetoclax in six of the eight lines tested”. The “cell death with combination” value ([2]; 100 μM TTFA plus 0.1 μM venetoclax, 24 h, 50 patient samples) was “significantly more cell death”, the “samples sensitized (venetoclax IC50 <0.1 μM)” value ([2]; 100 μM TTFA, 15 of 50 samples) was 30% and the “samples with more than a 50% decrease in venetoclax IC50” value ([2]; 100 μM TTFA, 31 of 50 samples) was 62%. The “samples with increased venetoclax sensitivity (IC50 Ven+TTFA vs Ven)” value ([2]; 100 μM TTFA, 46 of 50 samples) was 92%, the “samples with greater than 50% reduction in venetoclax IC50” value ([2]; of ten ex vivo resistant samples, TTFA treatment) was “seven samples” and the “reduction in venetoclax IC50” value ([2]; t(11;14) patient relapsed on venetoclax, TTFA treatment) was “more than tenfold reduction”. For the same compound, the “increased sensitivity to venetoclax” value ([2]; ten ex vivo resistant samples with high SQR activity, TTFA treatment) was “all ten resistant samples showed increased sensitivity”, the SDH activity [3] was “remained unaffected” and the “sensitization to venetoclax, cellular viability in colony-forming unit assay” value [4] was “sensitized MM lines to a lower dose of venetoclax”. The “viability of non-MM cells” value [5] was “no to minimal impact on viability” and the CS activity (citrate synthase) was “remained unaffected”.
